Results on 27 molecules are retold here after US20090048295A1, “SUBSTITUTED 5,6,7,8-TETRAHYDROQUINOLINE DERIVATIVES, COMPOSITIONS, AND METHODS OF USE THEREOF” (priority 2007, published 2009).

For test [1], the target named is T1, C5a receptor (Homo sapiens, UniProt P21730).
T1 sequence (P21730 1-350): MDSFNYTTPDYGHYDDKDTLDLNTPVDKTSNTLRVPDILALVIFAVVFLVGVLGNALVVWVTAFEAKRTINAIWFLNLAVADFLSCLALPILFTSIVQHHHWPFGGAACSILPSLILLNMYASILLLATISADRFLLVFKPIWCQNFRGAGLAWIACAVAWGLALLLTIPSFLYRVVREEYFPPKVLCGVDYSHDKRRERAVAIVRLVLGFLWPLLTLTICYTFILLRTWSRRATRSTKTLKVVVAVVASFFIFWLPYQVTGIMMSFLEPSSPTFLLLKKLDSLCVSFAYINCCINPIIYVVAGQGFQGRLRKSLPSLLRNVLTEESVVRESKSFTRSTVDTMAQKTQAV
As to the kind of experiment: biochemical.

Test [2] concerns the target T1, C5a receptor. As to the kind of experiment: Calcium Mobilization Assay (C5a-induced Ca2+ mobilization, FLIPR, differentiated U937 cells). Details: endogenous in cells; host or cells: U937 cells differentiated with dibutyryl cAMP. The format is cell-based. As to conditions: […] recombinant human C5a, 20 min pre-incubation, multiple values = duplicate experiments, read-out: C5a Induced Ca Mobil. Average IC50. In short, it runs like this:
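Differentiated U937 cells (1 mM dibutyryl cAMP, 2–3 days) loaded with Fluo-3AM, pre-incubated with compound 20 min at room temperature (1% DMSO), then stimulated with 1.5 nM recombinant human C5a. Intracellular Ca2+ fluorescence recorded on FLIPR each second to 2 min post-addition; maximal fluorescence used.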
(Calcium flux is commonly read through the fluorescence of an indicator in the cells.)

For test [3], the target named is T1, C5a receptor. As to the kind of experiment: [125I]-C5a Radioligand Binding Assay (competition binding, differentiated U937 cells).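 On all read-outs here: cells preincubated with compound 30 min at room temperature, then 60 min at 4 °C with radioligand, bound counts read by scintillation, nonspecific binding defined with 100 nM C5a.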 As to conditions: [125I]-C5a 0.05 nM, U937 cells, multiple values = duplicate experiments; for inhibition at 1 µM: read-out: [125I]-C5a Binding % Inhibition 1 μM, test compound 1 μM; for inhibition at 10 µM: read-out: [125I]-C5a Binding % Inhibition 10 μM, test compound 10 μM; for [125I]-C5a Binding % Inhibition 1 μM: test compound 1 μM; for [125I]-C5a Binding % Inhibition 10 μM: test compound 10 μM.

For test [4], the target named is T1, C5a receptor.

SMILES strings stand for the structures. Several values for one entry are separate records, joined by “and”; a condition that tells them apart may be missing. Equal values may be shown once. Read-outs that look alike come from different tables or passages of the source. Where only a bound is given, the exact number is not on record here.

For the molecule `CCc1cccc(CC)c1-c1cc(OC)c2c([n+]1[O-])CCCC2N(CC)c1cccc2ccccc12` (racemic) [Compound 19, (±)-[2-(2,6-Diethyl-phenyl)-4-methoxy-1-oxy-5,6,7,8-tetrahydro-quinolin-5-yl]-ethyl-naphthlen-1-yl-amine], the Ki (commonly a dissociation constant, usually derived from enzyme kinetics or from competition with a known ligand) at C5a receptor [1] worked out at 106 nM. Also, at C5a receptor [2], the IC50 (as a rule, the concentration that gives 50% inhibition) worked out at 161 nM. Further, at C5a receptor [3], the inhibition – broadly, the relative decrease from the control value, in per cent – at 1 µM was 81%; the inhibition at 10 µM amounted to 86%; the “[125I]-C5a Binding % Inhibition 1 μM” value came out at 82%; the “[125I]-C5a Binding % Inhibition 10 μM” value stood at 98%.
In turn, `CCc1cccc(CC)c1-c1cc(OC)c2c(n1)CCCC2N(C)c1cccc2ccccc12` (racemic) [Compound 20, (±)-[2-(2,6-Diethyl-phenyl)-4-methoxy-5,6,7,8-tetrahydro-quinolin-5-yl]-methyl-naphthlen-1-yl-amine] had a Ki on C5a receptor [1] of 7.3 nM. In addition, on C5a receptor [2], the IC50 stood at 165 nM. On C5a receptor [3], the inhibition at 1 µM was 84%; the inhibition at 10 µM was 93%; the “[125I]-C5a Binding % Inhibition 1 μM” value stood at 99%; the “[125I]-C5a Binding % Inhibition 10 μM” value was 102% and 100%.
`CCc1ccccc1-c1cc(OC)c2c(n1)CCCC2N(CC)c1cccc2ccccc12` (racemic) [Compound 39, (±)-Ethyl-[2-(2-ethyl-phenyl)-4-methoxy-5,6,7,8-tetrahydro-quinolin-5-yl]-naphthlen-1-yl-amine]: affinity at C5a receptor [1] was put at a Ki of 86 nM. In addition, the IC50 on C5a receptor [2] is 647 nM. Further, at C5a receptor [3], the inhibition at 1 µM came to 81%, the inhibition at 10 µM was found to be 87%, the “[125I]-C5a Binding % Inhibition 1 μM” value is reported as 90% and the “[125I]-C5a Binding % Inhibition 10 μM” value is 98%.
Molecule `CCc1cccc(CC)c1-c1ccc2c(n1)CCCC2N(CC)c1cccc2ccccc12` (racemic) [Compound 109, (±)-[2-(2,6-Diethyl-phenyl)-5,6,7,8-tetrahydro-quinolin-5-yl]-ethyl-naphthlen-1-yl-amine] gave a Ki at C5a receptor [1] of 1060 nM. Besides, the IC50 on C5a receptor [2] is over 10000 nM. Besides, at C5a receptor [3], the inhibition at 10 µM came to 83%; the “[125I]-C5a Binding % Inhibition 1 μM” value was 65% and 43%; the “[125I]-C5a Binding % Inhibition 10 μM” value came to 78%.
Regarding `CCc1cccc(CC)c1-c1cc(OC)c2c(n1)CCCC2Nc1ccc(Cl)cc1CO` (stereo not shown) [Compound 9], the affinity at C5a receptor [4], expressed as Ki, was 13 nM. Moreover, the IC50 on C5a receptor [2] stood at 71 nM. For the same molecule, on C5a receptor [3], the inhibition at 1 µM worked out at 91% and the inhibition at 10 µM worked out at 97%.
On to `CCc1cccc(CC)c1-c1cc(OC)c2c(n1)CCCC2Nc1cc(OC)ccc1C` (stereo not shown) [Compound 11], for which, on C5a receptor [4], the Ki turned out to be 10 nM. At C5a receptor [3], the inhibition at 1 µM amounted to 88%, the inhibition at 10 µM amounted to 92%, the “[125I]-C5a Binding % Inhibition 1 μM” value worked out at 96% and the “[125I]-C5a Binding % Inhibition 10 μM” value is on record as 97%.
As for `CCc1cccc(CC)c1-c1cc(OC)c2c(n1)CCCC2N1CCc2cccc(C(F)(F)F)c2C1` (stereo not shown) [Compound 26], the Ki at C5a receptor [4] turned out to be 9.7 nM. In addition, the IC50 on C5a receptor [2] was determined as 266 nM. Moreover, at C5a receptor [3], the inhibition at 1 µM was 93%, the inhibition at 10 µM turned out to be 94%, the “[125I]-C5a Binding % Inhibition 1 μM” value is given as 96% and the “[125I]-C5a Binding % Inhibition 10 μM” value came to 99%.
As for `CCc1cccc(CC)c1-c1cc(OC)c2c(n1)CCCC2N1CCc2ccccc2C1` (stereo not shown) [Compound 31], the affinity on C5a receptor [4], expressed as Ki, was 35 nM. In addition, at C5a receptor [3], the inhibition at 10 µM is 87%; the “[125I]-C5a Binding % Inhibition 1 μM” value is 77% and 94% and 96% and 69%; the “[125I]-C5a Binding % Inhibition 10 μM” value is 101% and 100% and 83%.
On to `CCN(c1cccc2ccccc12)C1CCCc2nc(-c3c(OC)cccc3OC)cc(OC)c21` (stereo not shown) [Compound 58], for which the Ki at C5a receptor [1] was 1160 nM. Moreover, the IC50 on C5a receptor [2] was 1770 nM. Also, on C5a receptor [3], the inhibition at 1 µM came to 59%, the inhibition at 10 µM was 83%, the “[125I]-C5a Binding % Inhibition 1 μM” value amounted to 46% and the “[125I]-C5a Binding % Inhibition 10 μM” value stood at 88%.
Regarding `CCc1cccc(CC)c1-c1cc(OC)c2c(n1)CCC[C@@H]2N(C)[C@@H]1CCCc2ccccc21` [Compound 59], the affinity at C5a receptor [4], expressed as Ki, was 57 nM. Besides, the IC50 at C5a receptor [2] amounted to 1900 nM. Further, on C5a receptor [3], the “[125I]-C5a Binding % Inhibition 1 μM” value was 91% and the “[125I]-C5a Binding % Inhibition 10 μM” value was 89%.
In the case of `CCc1cccc(CC)c1-c1cc(Cl)c2c(n1)CCCC2N(CC)c1cccc2ccccc12` (stereo not shown) [Compound 60], the Ki on C5a receptor [4] turned out to be 179 nM. The IC50 on C5a receptor [2] was found to be 1970 nM. In addition, at C5a receptor [3], the inhibition at 10 µM was 83% and the “[125I]-C5a Binding % Inhibition 10 μM” value was determined as 85%.
`CCN(c1cccc2ccccc12)C1CCCc2nc(-c3ccccc3F)cc(OC)c21` (stereo not shown) [Compound 73] returned a Ki on C5a receptor [4] of 3690 nM. In addition, at C5a receptor [2], the IC50 turned out to be 4590 nM. Besides, at C5a receptor [3], the inhibition at 10 µM was 80%; the “[125I]-C5a Binding % Inhibition 1 μM” value was 55% and 34%; the “[125I]-C5a Binding % Inhibition 10 μM” value amounted to 70%.
On to `CCN(c1cccc2ccccc12)C1CCCc2nc(-c3cccc4ccccc34)cc(OC)c21` (stereo not shown) [Compound 78], for which the affinity at C5a receptor [4], expressed as Ki, was 368 nM. On C5a receptor [2], the IC50 came out at 5860 nM. Also, at C5a receptor [3], the inhibition at 1 µM turned out to be 71%, the inhibition at 10 µM turned out to be 85%, the “[125I]-C5a Binding % Inhibition 1 μM” value amounted to 72% and the “[125I]-C5a Binding % Inhibition 10 μM” value turned out to be 95%.
Molecule `CCc1cccc(CC)c1-c1cc(OC)c2c(n1)CCCC2N(C)c1ccccc1` (stereo not shown) [Compound 82] came in with an inhibition constant Ki at C5a receptor [4] of 678 nM. The IC50 on C5a receptor [2] was determined as 7940 nM. Further, on C5a receptor [3], the inhibition at 1 µM was 66%, the inhibition at 10 µM turned out to be 81%, the “[125I]-C5a Binding % Inhibition 1 μM” value is on record as 55% and the “[125I]-C5a Binding % Inhibition 10 μM” value is listed as 76%.
On to `CCc1cccc(CC)c1-c1cc(OC)c2c(n1)CCCC2N(CC)Cc1ccccc1` (stereo not shown) [Compound 85], for which, on C5a receptor [1], the affinity, expressed as Ki, was 963 nM. The IC50 on C5a receptor [2] is over 10000 nM. For the same molecule, at C5a receptor [3], the inhibition at 1 µM was found to be 56%, the inhibition at 10 µM turned out to be 75%, the “[125I]-C5a Binding % Inhibition 1 μM” value was found to be 49% and the “[125I]-C5a Binding % Inhibition 10 μM” value came to 79%.
Regarding `CCc1cccc(CC)c1-c1cc(OC)c2c(n1)CCCC2N1Cc2ccccc2C1` (stereo not shown) [Compound 89], the Ki at C5a receptor [1] was determined as 1700 nM. In addition, the IC50 at C5a receptor [2] was over 10000 nM. Besides, on C5a receptor [3], the inhibition at 10 µM turned out to be 75%; the “[125I]-C5a Binding % Inhibition 1 μM” value is 71% and 37%; the “[125I]-C5a Binding % Inhibition 10 μM” value is recorded as 77%.
In the case of `CCc1cccc(CC)c1-c1cc(OC)c2c(n1)CCCC2Nc1cccc2c1CCC2` (stereo not shown) [Compound 121], the IC50 at C5a receptor [2] is over 10000 nM. In addition, on C5a receptor [3], the inhibition at 1 µM worked out at 59% and the inhibition at 10 µM stood at 75%.
In the same order, the values of `CCc1cccc(CC)c1-c1cc(OC)c2c(n1)CCCC2N(C)Cc1ccccc1` (stereo not shown) [Compound 123] are over 10000 nM, 3% and 39%.
In the same order, the values of `CCc1cccc(CC)c1-c1cc(OC)c2c(n1)CCCC2N(C)C1CCCCC1` (stereo not shown) [Compound 124] are over 10000 nM, 2% and 33%.
In the same order, the values of `CCc1cccc(CC)c1-c1cc(OC)c2c(n1)CCCC2N(C)Cc1cccnc1` (stereo not shown) [Compound 125] are over 10000 nM, -11% and 45%.
In the case of `CCc1cccc(CC)c1-c1cc(OC)c2c(n1)CCCC2N1CCCC1` (stereo not shown) [Compound 126], on C5a receptor [2], the IC50 is over 10000 nM. In addition, at C5a receptor [3], the inhibition at 1 µM was -11% and the inhibition at 10 µM turned out to be 18%.
On to `CCc1cccc(CC)c1-c1cc(OC)c2c(n1)CCCC2N1CCc2cc(C(=O)O)ccc2C1` (stereo not shown) [Compound 128], for which the IC50 at C5a receptor [2] is over 10000 nM. Besides, on C5a receptor [3], the inhibition at 1 µM is -25% and the inhibition at 10 µM was -9%.
In the same order, the values of `CCc1cccc(CC)c1-c1cc(OC)c2c(n1)CCCC2N1CCc2c(cccc2C(=O)O)C1` (stereo not shown) [Compound 129] are over 10000 nM, -46% and -20%.
Regarding `CCc1cccc(CC)c1-c1cc(OC)c2c(n1)CCCC2N1CCc2cccc(C(=O)O)c2C1` (stereo not shown) [Compound 130], the IC50 at C5a receptor [2] is over 10000 nM. Moreover, at C5a receptor [3], the inhibition at 1 µM is -24% and the inhibition at 10 µM is -13%.
Take `CCc1cccc(CC)c1-c1cc(OC)c2c(n1)CCCC2N1CCc2ccc(C(=O)O)cc2C1` (stereo not shown) [Compound 131]: the IC50 on C5a receptor [2] was over 10000 nM. At C5a receptor [3], the inhibition at 1 µM was -26% and the inhibition at 10 µM was -9%.
On to `CCN(c1cccc2ccccc12)C1CCCc2nc(-c3ccccc3)cc(OC)c21` (stereo not shown) [Compound 133], for which the Ki at C5a receptor [4] was 8290 nM.
`CCc1cccc(CC)c1-c1cc(OC)c2c(n1)CCCC2N(CC)c1ncnc2ccccc12` (stereo not shown) [Compound 135]: the IC50 at C5a receptor [2] was over 10000 nM. On C5a receptor [3], the inhibition at 1 µM was 16% and the inhibition at 10 µM was found to be 47%.
